Measurements published in ChEMBL document CHEMBL3885861, “Open TG-GATES”.

Species: Rattus norvegicus
Assay: Open TG-GATES - Regimen: Daily Repeat
Format: toxicity, organism-based, Sprague-Dawley
Set-up: regimen Daily Repeat, gender Male, age 6 weeks
Details: in vivo, po, 2000 mg/kg, […], route gavage, dose level High; for KIDNEY_L / KIDNEY_R / KIDNEY_TOTAL: tissue Kidney; for LIVER: tissue Liver; for A/G / ALP / ALT / AST / BUN / CRE / Ca / Cl / DBIL / GLC / IP / K / LDH / Na / PL / RALB / TBIL / TC / TG / TP / gamma-GTP: tissue Plasma

SMILES: COc1ccc(O)c(C(C)(C)C)c1.COc1ccc(O)cc1C(C)(C)C [BUTYLATED HYDROXYANISOLE]
- Lym (tissue Blood, time 28 day): 75.1%
- MCH (tissue Blood, time 28 day): 19 pg
- MCHC (tissue Blood, time 28 day): 35.3%
- MCV (tissue Blood, time 28 day): 53.8 fL
- Mono (tissue Blood, time 28 day): 2.1%
- Neu (tissue Blood, time 28 day): 21%
- PT (tissue Blood, time 28 day): 12.5 s
- Plat (tissue Blood, time 28 day): 129.2 x10_4/uL
- RBC (tissue Blood, time 28 day): 778.2 x10_4/ul
- Ret (tissue Blood, time 28 day): 2.2%
- WBC (tissue Blood, time 28 day): 110.2 x10_2/uL
- KIDNEY_L (time 7 day): 0.9 g
- KIDNEY_R (time 7 day): 0.9 g
- KIDNEY_TOTAL (time 7 day): 1.8 g
- KIDNEY_L (time 14 day): 1 g
- KIDNEY_R (time 14 day): 1 g
- KIDNEY_TOTAL (time 14 day): 2 g
- KIDNEY_L (time 28 day): 1.2 g
- KIDNEY_R (time 28 day): 1.2 g
- KIDNEY_TOTAL (time 28 day): 2.4 g
- LIVER (time 7 day): 12.6 g
- LIVER (time 14 day): 15.3 g
- LIVER (time 28 day): 19.6 g
- A/G (time 7 day): 0.8
- ALP (time 7 day): 797 IU/L
- ALT (time 7 day): 44.8 IU/L
- AST (time 7 day): 61.2 IU/L
- BUN (time 7 day): 17 mg/dL
- CRE (time 7 day): 0.2 mg/dL
- Ca (time 7 day): 11.5 mg/dL
- Cl (time 7 day): 105.4 meq/L
- DBIL (time 7 day): 0.032 mg/dL
- GLC (time 7 day): 157 mg/dL
- IP (time 7 day): 7.7 mg/dL
- K (time 7 day): 3.4 meq/L
- LDH (time 7 day): 62.8 IU/L
- Na (time 7 day): 143.8 meq/L
- PL (time 7 day): 180 mg/dL
- RALB (time 7 day): 2.7 g/dL
- TBIL (time 7 day): 0.066 mg/dL
- TC (time 7 day): 102.6 mg/dL
- TG (time 7 day): 97.2 mg/dL
- TP (time 7 day): 6.1 g/dL
- gamma-GTP (time 7 day): 2.4 IU/L
- A/G (time 14 day): 0.8
- ALP (time 14 day): 1011.2 IU/L
- ALT (time 14 day): 39.4 IU/L
- AST (time 14 day): 59.2 IU/L
- BUN (time 14 day): 18.4 mg/dL
- CRE (time 14 day): 0.2 mg/dL
- Ca (time 14 day): 11.2 mg/dL
- Cl (time 14 day): 105.6 meq/L
- DBIL (time 14 day): 0.026 mg/dL
- GLC (time 14 day): 159.8 mg/dL
- IP (time 14 day): 6.2 mg/dL
- K (time 14 day): 3.4 meq/L
- LDH (time 14 day): 43.6 IU/L
- Na (time 14 day): 144.8 meq/L
- PL (time 14 day): 204.4 mg/dL
- RALB (time 14 day): 2.8 g/dL
- TBIL (time 14 day): 0.062 mg/dL
- TC (time 14 day): 108 mg/dL
- TG (time 14 day): 153.6 mg/dL
- TP (time 14 day): 6.2 g/dL
- gamma-GTP (time 14 day): 3 IU/L
- A/G (time 28 day): 0.7
- ALP (time 28 day): 696 IU/L
- ALT (time 28 day): 36.6 IU/L
- AST (time 28 day): 58 IU/L
- BUN (time 28 day): 19.8 mg/dL
- CRE (time 28 day): 0.2 mg/dL
- Ca (time 28 day): 11.3 mg/dL
- Cl (time 28 day): 104.8 meq/L
- DBIL (time 28 day): 0.022 mg/dL
- GLC (time 28 day): 174.8 mg/dL
- IP (time 28 day): 5.6 mg/dL
- K (time 28 day): 3.5 meq/L
- LDH (time 28 day): 58.2 IU/L
- Na (time 28 day): 145.8 meq/L
- PL (time 28 day): 198.8 mg/dL
- RALB (time 28 day): 2.8 g/dL
- TBIL (time 28 day): 0.068 mg/dL
- TC (time 28 day): 109 mg/dL
- TG (time 28 day): 121 mg/dL
- TP (time 28 day): 6.6 g/dL
- gamma-GTP (time 28 day): 2.6 IU/L
